Source: patent US9775844B2, “Heterocyclic compounds and uses thereof” (Infinity Pharmaceuticals, Inc., priority 2014, dated 2017)
Where two headings read alike, the source gives them in different places.

Columns and labels:
human T cells = assay: Concanavalin A-induced model for activation of human T cells (IFN-γ); format: cell-based
[1] = molecular target: PI3K-γ in RAW264.7 macrophages (Mus musculus (Mouse), UniProt Q9JHG7); assay: Raw264.7 p110 γ assay (PI3K-γ selective cellular assay, C5a-stimulated phospho-AKT); format: cell-based; conditions: read-out: Cellular IC50 γ
Text: Briefly, serum-starved RAW264.7 cells are stimulated with a known GPCR agonist C5a. […] Cells can be treated with test compounds prior to, simultaneously with, or subsequent to the stimulation by C5a. RAW 264.7 cells respond to the complement component fragment C5a through activation of the C5a receptor, and the C5a receptor activates macrophages and induces cell migration.

PI3K-α in SKOV-3 cells = PI3K-α in SKOV-3 cells (Homo sapiens (Human), UniProt P42336, H1047R); assay: PI3K-α selective cellular assay (phospho-AKT); format: cell-based
[2] = tested on: CXCL12 induced p-AKT in polarized bone marrow derived macrophages; assay: CXCL12-induced p-AKT induction assay in differentiated macrophages; format: cell-based, mouse
Text: Macrophage Differentiation and Polarization: Long bones from young C57B6 mice were harvested and bone marrow was extruded by gentle lavage of the bone marrow cavities with a 28 gauge needle. Red blood cells were removed using red blood cell lysis buffer (Sigma). Bone marrow cells were differentiated to macrophages using MCSF for 6 days (RPMI and 20% FCS) with one media change (with removal of all non-adherent cells) at day 3. Macrophages were polarized into MO (MCSF), M1 (MCSF, IFNγ, and LPS for 1 day), or M2 (MCSF, IL4 for 2 days).
CXCL12-Induced p-AKT Induction Assay: Polarized macrophages were lifted with Acutase, and plated at 0.5M cells per well (0.5 ml) in a deep well (2 ml) non adherant plate in polarization media for 1 hour. […] CXCL12 was added, and the cells were mixed on a plate shaker for 2 minutes. 1 ml of 37 degree FACS Lyse/fix buffer (BD bioscience) was added and the plate was mixed for 1 minute. The plates were spun and decanted and frozen at −80° C. Phospho AKT staining with anti Phospho AKT 473 PERCP labeled (Cell Signaling Technologies) was performed and measured by flow cytometry. Total cell MFI was used to calculate the effect of tested compound on CXCL12 induction of phospho AKT.

[3] = tested on: LPS induced neutrophil influx in bronchoalveolar lavage fluid; assay: LPS-induced neutrophilia, oral administration; format: in vivo; conditions: rat, p.o., 4 hours post-LPS challenge, dose dependent
Protocol: (§1) This study also includes assessment of the exposure to the compounds in plasma and lung tissues.
(§2) Ref C is budesonide p.o. The compound was administered p.o. and about 1 hour later, LPS was administered intra-tracheally and plasma was collected. After about 5 hours, plasma and bronchoalveolar lavage samples were collected.

PI3K-β in 786-O cells = PI3K-β in 786-O cells (Homo sapiens (Human), UniProt P42338); assay: PI3K-β selective cellular assay (phospho-AKT); format: cell-based
[4] = Oral PK in the rat LPS studies (free plasma concentration); format: in vivo; conditions: for concentration at 1.5 h / concentration at […]: plasma, po, read-out: Free Plasma Conc; for concentration at […]: 5.5h
Protocol: as §1, §2

PI3K-delta = PI3K-delta (Homo sapiens (Human), UniProt O00329); conditions: as described in Table 4 of WO2013/032591; cited from earlier work
PI3K-δ in RAJI cells = PI3K-δ in RAJI cells (Homo sapiens (Human), UniProt O00329); assay: RAJI p110 δ assay (PI3K-δ selective cellular assay, phospho-AKT); format: cell-based; conditions: read-out: Cellular IC50 δ
PI3K δ = PI3K δ (Homo sapiens (Human), UniProt O00329); assay: PI3-Kinase Promega ADP-Glo Max assay; format: biochemical; conditions: IC50 against PI3K gamma divided by IC50 against PI3K delta
[5] = tested on: IL-8 induced neutrophil migration; assay: IL-8 driven murine air pouch model; conditions: mouse air pouch; BB 0.1-3 mg/kg, AA 10-50 mg/kg

Chain of PI3K δ (O00329 whole entry, the tested form may be a part): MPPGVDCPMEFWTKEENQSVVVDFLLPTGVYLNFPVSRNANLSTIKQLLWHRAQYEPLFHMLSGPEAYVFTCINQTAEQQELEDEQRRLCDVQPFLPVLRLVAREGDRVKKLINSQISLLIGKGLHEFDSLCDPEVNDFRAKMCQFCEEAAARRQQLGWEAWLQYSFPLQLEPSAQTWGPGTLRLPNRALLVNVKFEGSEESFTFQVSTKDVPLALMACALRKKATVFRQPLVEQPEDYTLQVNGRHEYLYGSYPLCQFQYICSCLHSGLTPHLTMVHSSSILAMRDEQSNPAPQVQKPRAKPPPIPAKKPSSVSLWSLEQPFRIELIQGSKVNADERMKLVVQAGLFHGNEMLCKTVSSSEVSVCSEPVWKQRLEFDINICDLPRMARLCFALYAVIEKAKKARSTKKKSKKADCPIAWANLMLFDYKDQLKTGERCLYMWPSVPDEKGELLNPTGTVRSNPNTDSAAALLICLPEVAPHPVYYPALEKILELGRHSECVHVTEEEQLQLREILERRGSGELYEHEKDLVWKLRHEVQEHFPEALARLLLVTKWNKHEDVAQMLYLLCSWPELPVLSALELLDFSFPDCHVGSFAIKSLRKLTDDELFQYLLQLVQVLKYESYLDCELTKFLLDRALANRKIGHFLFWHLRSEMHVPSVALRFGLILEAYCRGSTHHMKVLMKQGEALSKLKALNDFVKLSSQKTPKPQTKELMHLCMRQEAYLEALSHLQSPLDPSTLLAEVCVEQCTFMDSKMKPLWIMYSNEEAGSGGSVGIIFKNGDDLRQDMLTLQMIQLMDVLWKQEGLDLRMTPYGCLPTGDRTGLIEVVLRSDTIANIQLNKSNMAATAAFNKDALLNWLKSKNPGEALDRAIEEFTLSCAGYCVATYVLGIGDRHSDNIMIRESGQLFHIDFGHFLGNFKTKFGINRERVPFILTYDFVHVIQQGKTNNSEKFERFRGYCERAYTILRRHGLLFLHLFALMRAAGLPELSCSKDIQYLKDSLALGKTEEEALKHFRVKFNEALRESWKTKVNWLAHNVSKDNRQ
Chain of PI3K δ (P27986 whole entry partner, the tested form may be a part): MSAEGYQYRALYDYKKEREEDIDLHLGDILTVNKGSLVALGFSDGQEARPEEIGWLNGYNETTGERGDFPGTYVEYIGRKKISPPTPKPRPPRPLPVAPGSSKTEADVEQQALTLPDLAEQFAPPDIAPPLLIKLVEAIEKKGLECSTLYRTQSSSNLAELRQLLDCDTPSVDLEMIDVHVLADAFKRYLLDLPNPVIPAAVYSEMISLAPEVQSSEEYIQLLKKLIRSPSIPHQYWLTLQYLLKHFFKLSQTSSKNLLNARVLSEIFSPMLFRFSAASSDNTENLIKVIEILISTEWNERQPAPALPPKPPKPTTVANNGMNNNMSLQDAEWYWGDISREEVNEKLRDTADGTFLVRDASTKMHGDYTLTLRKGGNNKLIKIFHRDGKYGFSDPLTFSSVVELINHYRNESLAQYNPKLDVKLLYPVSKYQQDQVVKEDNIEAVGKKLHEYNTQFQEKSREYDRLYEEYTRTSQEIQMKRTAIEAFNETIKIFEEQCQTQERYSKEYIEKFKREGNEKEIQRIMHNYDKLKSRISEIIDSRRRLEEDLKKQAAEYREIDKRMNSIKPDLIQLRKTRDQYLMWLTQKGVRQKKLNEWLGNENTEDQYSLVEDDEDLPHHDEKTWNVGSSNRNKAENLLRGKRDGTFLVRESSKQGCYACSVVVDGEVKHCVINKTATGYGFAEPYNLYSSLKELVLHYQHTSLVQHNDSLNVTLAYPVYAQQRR
Chain of PI3K-α in SKOV-3 cells (P42336 whole entry H1047R): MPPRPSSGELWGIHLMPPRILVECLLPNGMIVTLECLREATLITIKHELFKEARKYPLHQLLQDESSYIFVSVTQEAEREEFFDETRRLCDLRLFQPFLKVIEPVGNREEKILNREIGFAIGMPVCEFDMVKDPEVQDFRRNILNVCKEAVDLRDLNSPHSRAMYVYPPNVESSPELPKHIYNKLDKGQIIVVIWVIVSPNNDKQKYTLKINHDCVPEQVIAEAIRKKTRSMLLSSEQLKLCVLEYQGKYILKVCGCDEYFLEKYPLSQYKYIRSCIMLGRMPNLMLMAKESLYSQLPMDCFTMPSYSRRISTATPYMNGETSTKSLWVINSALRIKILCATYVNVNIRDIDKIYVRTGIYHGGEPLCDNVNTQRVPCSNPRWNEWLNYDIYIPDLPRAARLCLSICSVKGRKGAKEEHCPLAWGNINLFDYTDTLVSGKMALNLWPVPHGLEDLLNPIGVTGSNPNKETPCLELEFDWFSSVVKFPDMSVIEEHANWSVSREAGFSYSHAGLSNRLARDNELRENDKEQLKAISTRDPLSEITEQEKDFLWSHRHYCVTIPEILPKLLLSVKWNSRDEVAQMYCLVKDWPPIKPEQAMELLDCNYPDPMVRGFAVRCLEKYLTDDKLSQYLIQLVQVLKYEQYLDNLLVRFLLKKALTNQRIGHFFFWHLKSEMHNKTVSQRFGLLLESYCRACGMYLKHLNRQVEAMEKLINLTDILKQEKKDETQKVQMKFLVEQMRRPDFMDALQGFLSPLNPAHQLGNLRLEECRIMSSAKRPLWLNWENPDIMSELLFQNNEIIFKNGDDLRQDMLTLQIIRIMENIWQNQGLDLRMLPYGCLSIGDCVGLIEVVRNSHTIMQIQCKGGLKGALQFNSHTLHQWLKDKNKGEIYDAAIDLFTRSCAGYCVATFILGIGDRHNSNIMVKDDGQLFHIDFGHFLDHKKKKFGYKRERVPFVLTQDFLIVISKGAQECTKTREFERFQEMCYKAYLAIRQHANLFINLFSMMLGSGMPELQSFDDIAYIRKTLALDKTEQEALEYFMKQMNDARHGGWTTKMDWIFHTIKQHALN
Chain of PI3K-α in SKOV-3 cells (P27986 whole entry partner): as the sequence (P27986 whole entry partner, the tested form may be a part) above
Chain of PI3K-β in 786-O cells (P42338 whole entry): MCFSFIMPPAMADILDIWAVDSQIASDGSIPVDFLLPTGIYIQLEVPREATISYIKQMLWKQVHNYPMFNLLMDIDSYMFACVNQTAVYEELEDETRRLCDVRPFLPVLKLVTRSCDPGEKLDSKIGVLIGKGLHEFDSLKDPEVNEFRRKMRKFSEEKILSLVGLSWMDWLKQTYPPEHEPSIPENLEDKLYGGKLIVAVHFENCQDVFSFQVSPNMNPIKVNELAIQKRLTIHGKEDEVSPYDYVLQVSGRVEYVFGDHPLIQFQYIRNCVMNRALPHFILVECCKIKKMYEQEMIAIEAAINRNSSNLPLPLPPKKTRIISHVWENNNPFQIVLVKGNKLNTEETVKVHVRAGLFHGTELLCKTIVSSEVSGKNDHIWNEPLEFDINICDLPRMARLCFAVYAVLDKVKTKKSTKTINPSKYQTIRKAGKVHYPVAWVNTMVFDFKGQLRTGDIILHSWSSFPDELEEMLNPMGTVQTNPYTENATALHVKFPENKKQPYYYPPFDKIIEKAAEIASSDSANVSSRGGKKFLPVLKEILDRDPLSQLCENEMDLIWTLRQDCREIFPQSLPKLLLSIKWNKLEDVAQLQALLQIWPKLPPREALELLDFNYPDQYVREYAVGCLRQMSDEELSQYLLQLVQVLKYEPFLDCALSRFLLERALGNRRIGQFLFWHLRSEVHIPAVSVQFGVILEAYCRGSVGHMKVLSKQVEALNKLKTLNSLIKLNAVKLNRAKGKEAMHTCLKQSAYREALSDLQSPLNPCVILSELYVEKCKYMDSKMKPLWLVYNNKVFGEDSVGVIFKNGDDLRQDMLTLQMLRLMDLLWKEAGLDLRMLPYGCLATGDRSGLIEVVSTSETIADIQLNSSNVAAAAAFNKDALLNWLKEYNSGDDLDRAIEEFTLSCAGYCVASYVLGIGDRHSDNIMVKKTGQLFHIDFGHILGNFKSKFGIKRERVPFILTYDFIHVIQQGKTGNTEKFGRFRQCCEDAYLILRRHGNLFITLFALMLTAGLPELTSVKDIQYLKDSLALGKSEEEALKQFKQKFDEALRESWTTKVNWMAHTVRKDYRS
Chain of PI3K-β in 786-O cells (P27986 whole entry partner): as the sequence (P27986 whole entry partner, the tested form may be a part) above
Chain of PI3K-δ in RAJI cells (O00329 whole entry): as the sequence (O00329 whole entry, the tested form may be a part) above
Chain of PI3K-δ in RAJI cells (P27986 whole entry partner): as the sequence (P27986 whole entry partner, the tested form may be a part) above
Chain of PI3K-delta (O00329 whole entry, species assumed): as the sequence (O00329 whole entry, the tested form may be a part) above
Chain of PI3K-delta (P27986 whole entry partner, species assumed): as the sequence (P27986 whole entry partner, the tested form may be a part) above

SMILES: CC(C)n1c([C@H](C)Nc2ncnc(N)c2C#N)cc2cccc(-c3ccc(=O)n(C)c3)c2c1=O [Compound AA, reference compound]
- inhibition of IFN-γ (human T cells): highly selective inhibitor of IFN-γ
- IC50 [1]: 418 nM
- IC50 (PI3K-α in SKOV-3 cells): 1900 nM
- IC50, CXCL12 induced p-AKT ([2]; differentiated and M1 polarized macrophage): did not significantly inhibit
- IC50, CXCL12 induced p-AKT ([2]; differentiated and M2 polarized macrophage): did not significantly inhibit
- neutrophil in bronchoalveolar lavage fluid (BALF) [3]: reduced neutrophil
- IC50 (PI3K-β in 786-O cells): 102 nM
- Free Plasma Conc ([4]; p.o. 0.2 mg/kg, 1.5h): BLQ
- concentration at 1.5 h ([4]; p.o. 1 mg/kg, 1.5h): 1.8 nM
- concentration at […] ([4]; p.o. 1 mg/kg): 1.1 nM
- concentration at 1.5 h ([4]; p.o. 5 mg/kg, 1.5h): 17.8 nM
- concentration at […] ([4]; p.o. 5 mg/kg): 4.6 nM
- IC50 (PI3K-delta): < 100 nM
- IC50 (PI3K-δ in RAJI cells): 0.1 nM
- gamma/delta selectivity ratio (PI3K δ): greater than 50
- IL-8 induced neutrophil migration [5]: does not inhibit IL-8 induced neutrophil migration
